Measurements: ChEMBL document CHEMBL4665675 (J Med Chem, 2020)

Assays:
HeLa = experiment: Cytotoxicity against human HeLa cells after 24 to 72 hrs by Cell Titer Blue assay; type: cell-based
[1] = biological target: T1, carboxylesterase 1 (CES1) (Homo sapiens, UniProt P23141); experiment: Substrate activity at human carboxylesterase 1 expressed in baculovirus infected Sf9 insect cells assessed as enzyme-catalysed compound cleavage incubated for 2 hrs by HPLC analysis; type: ADME; conditions: read-out: Activity
T1 sequence (P23141 whole entry): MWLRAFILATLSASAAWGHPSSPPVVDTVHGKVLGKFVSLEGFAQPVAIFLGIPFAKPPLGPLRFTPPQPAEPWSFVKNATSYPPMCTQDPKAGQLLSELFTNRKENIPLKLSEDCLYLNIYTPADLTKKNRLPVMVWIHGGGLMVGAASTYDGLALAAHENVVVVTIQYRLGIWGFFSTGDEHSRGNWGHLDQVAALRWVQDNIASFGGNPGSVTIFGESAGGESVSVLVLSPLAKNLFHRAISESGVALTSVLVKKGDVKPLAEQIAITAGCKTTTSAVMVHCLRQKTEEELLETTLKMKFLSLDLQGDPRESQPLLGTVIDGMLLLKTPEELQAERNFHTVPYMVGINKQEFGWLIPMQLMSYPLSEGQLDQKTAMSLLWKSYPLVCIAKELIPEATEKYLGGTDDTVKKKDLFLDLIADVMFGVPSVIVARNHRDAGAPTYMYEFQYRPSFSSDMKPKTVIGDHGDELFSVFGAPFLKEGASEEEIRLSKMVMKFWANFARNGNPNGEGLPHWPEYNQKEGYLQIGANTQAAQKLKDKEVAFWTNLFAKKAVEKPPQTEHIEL

P388 = experiment: Antiproliferative activity against mouse P388 cells incubated for 72 hrs by Coulter counter method; type: functional, cell-based; conditions: P388, 72 h
CCRF-CEM = experiment: Cytotoxicity against human CEM cells incubated for 48 to 72 hrs by Cell Titer 96 aqueous one solution cell proliferation assay; type: functional, cell-based
[2] = Antiproliferative activity against human LoVo/DX cells incubated for 72 hrs by sulforhodamine B assay; type: functional, cell-based
LoVo = experiment: Antiproliferative activity against human LoVo cells incubated for 72 hrs by sulforhodamine B assay; type: functional, cell-based
A549 [3] = experiment: Antiproliferative activity against human A549 cells incubated for 72 hrs by sulforhodamine B assay; type: functional, cell-based; conditions: A549, 72 h
MCF7 [4] = experiment: Antiproliferative activity against human MCF7 cells incubated for 72 hrs by sulforhodamine B assay; type: functional, cell-based; conditions: MCF7, 72 h
BALB/3T3 = experiment: Cytotoxicity against mouse BALB/3T3 cells incubated for 72 hrs by sulforhodamine B assay; type: cell-based; conditions: BALB/3T3, 72 h
[5] = Antiproliferative activity against human ALL5 cells incubated for 120 hrs by MTT assay; type: functional, cell-based; conditions: ALL5, 120 h
A2780 = experiment: Cytotoxicity against human A2780 cells; type: functional, cell-based
Bel-7402 = experiment: Cytotoxicity against human BEL7402 cells; type: functional, cell-based
MCF7 [6] = experiment: Cytotoxicity against human MCF7 cells; type: functional, cell-based
A549 [7] = experiment: Cytotoxicity against human A549 cells; type: functional, cell-based

SMILES	IC50 [2] [nM]	IC50 (LoVo) [nM]	IC50 (A549 [3]) [nM]	IC50 (MCF7 [4]) [nM]	IC50 (BALB/3T3) [nM]	further results
COc1cc2c(c(OC)c1OC)-c1ccc(NCCC(O)C(=O)N[C@@H](CC(C)C)C(=O)OC3CCCC3)c(=O)cc1[C@@H](NC(C)=O)CC2 (stereo partly specified)	–	–	–	–	–	IC50 (HeLa): 230 nM; metabolised at 2 h [1]: 13%
COc1cc2c(c(OC)c1OC)-c1ccc(NCCCN(C)C)c(=O)cc1[C@@H](NC(C)=O)CC2	–	–	–	–	–	IC50 (P388): > 10000 nM
CCCNc1ccc2c(cc1=O)[C@@H](NC(C)=O)CCc1cc(OC)c(OC)c(OC)c1-2	–	–	–	–	–	IC50 (P388): 36 nM
CCOc1c(OC)c(OC)cc2c1-c1ccc(OC)c(=O)cc1[C@@H](NC(C)=O)CC2	–	–	–	–	–	IC50 (CCRF-CEM): 12 nM
COc1cc2c(c(OCc3ccc(Cl)cc3)c1OC)-c1ccc(OC)c(=O)cc1[C@@H](NC(C)=O)CC2	–	–	–	–	–	IC50 (CCRF-CEM): 12 nM
COc1c(Br)c2c(c(OC)c1OC)-c1ccc(SC)c(=O)cc1[C@@H](NC(C)=O)CC2	135	14	–	–	–	–
COc1cc2c(c(OC)c1OC)-c1ccc(=N)c(O)cc1[C@@H](NC(C)=O)CC2	–	–	–	–	–	IC50 (HeLa): 7 nM
COc1c(Cl)c2c(c(OC)c1OC)-c1ccc(SC)c(=O)cc1[C@@H](NC(C)=O)CC2	111	22	22	22	22	–
COC(=O)N[C@H]1CCc2c(Cl)c(OC)c(OC)c(OC)c2-c2ccc(SC)c(=O)cc21	11	11	11	11	11	–
COc1c(Cl)c2c(c(OC)c1OC)-c1ccc(SC)c(=O)cc1[C@@H](NC(=O)C(C)C)CC2	2	2	2	2	2	IC50 [5]: 2 nM
COc1cc2c(c(OC)c1OC)-c1ccc(NCCOC(=O)CCC(=O)OCCCO[N+](=O)[O-])c(=O)cc1[C@@H](NC(C)=O)CC2	–	–	–	–	–	IC50 (A2780): 20 nM; IC50 (Bel-7402): 40 nM; IC50 (MCF7 [6]): 40 nM; IC50 (A549 [7]): 40 nM
CCOC(=O)N[C@H]1CCc2c(Cl)c(OC)c(OC)c(OC)c2-c2ccc(SC)c(=O)cc21	8	8	8	8	8	–
COc1cccc2c1C(=O)c1c(O)c3c(c(O)c1C2=O)C[C@@](O)(C(=O)CO)C[C@@H]3O[C@H]1C[C@H](N)[C@H](O)[C@H](C)O1 [DOXORUBICIN]	92	–	92	–	92	–
COc1cc2c(c(OC)c1OC)-c1ccc(NCC(C)C)c(=O)cc1[C@@H](NC(C)=O)CC2	–	–	–	–	–	IC50 (P388): 320 nM
COc1cc2c(c(OC)c1OC)-c1ccc(NCCOC(=O)CCC(=O)OCCCCCO[N+](=O)[O-])c(=O)cc1[C@@H](NC(C)=O)CC2	–	–	–	–	–	IC50 (A2780): 20 nM; IC50 (Bel-7402): 40 nM; IC50 (MCF7 [6]): 40 nM; IC50 (A549 [7]): 40 nM
COc1c(Cl)c2c(c(OC)c1OC)-c1ccc(SC)c(=O)cc1[C@@H](NC(=O)c1ccccc1)CC2	7	7	7	7	7	IC50 [5]: 7 nM
CCCCOC(=O)N[C@H]1CCc2c(Cl)c(OC)c(OC)c(OC)c2-c2ccc(SC)c(=O)cc21	20	20	20	20	20	–
COc1c(F)c2c(c(OC)c1OC)-c1ccc(SC)c(=O)cc1[C@@H](NC(C)=O)CC2	398	21	11	10	114	–
C=COc1c(OC)c(OC)cc2c1-c1ccc(OC)c(=O)cc1[C@@H](NC(C)=O)CC2	–	–	–	–	–	IC50 (CCRF-CEM): 12 nM
CCC(=O)N[C@H]1CCc2c(Cl)c(OC)c(OC)c(OC)c2-c2ccc(SC)c(=O)cc21	2	2	2	2	2	IC50 [5]: 2 nM
COCCOc1c(OC)c(OC)cc2c1-c1ccc(OC)c(=O)cc1[C@@H](NC(C)=O)CC2	–	–	–	–	–	IC50 (CCRF-CEM): 12 nM
COc1cc2c(c(OCc3ccccc3Cl)c1OC)-c1ccc(OC)c(=O)cc1[C@@H](NC(C)=O)CC2	–	–	–	–	–	IC50 (CCRF-CEM): 12 nM
CCCCNc1ccc2c(cc1=O)[C@@H](NC(C)=O)CCc1cc(OC)c(OC)c(OC)c1-2	–	–	–	–	–	IC50 (P388): 240 nM
COc1c(I)c2c(c(OC)c1OC)-c1ccc(SC)c(=O)cc1[C@@H](NC(C)=O)CC2	642	7	11	17	115	–

SMILES	IC50 [2] [nM]	IC50 (LoVo) [nM]	IC50 (A549 [3]) [nM]	IC50 (MCF7 [4]) [nM]	IC50 (BALB/3T3) [nM]	further results
COc1cc2c(c(OC)c1OC)-c1ccc(NCCOC(=O)CCC(=O)OCCCCCCO[N+](=O)[O-])c(=O)cc1[C@@H](NC(C)=O)CC2	–	–	–	–	–	IC50 (A2780): 20 nM; IC50 (Bel-7402): 40 nM; IC50 (MCF7 [6]): 40 nM; IC50 (A549 [7]): 40 nM
COc1cc2c(c(OCc3cccc(Cl)c3)c1OC)-c1ccc(OC)c(=O)cc1[C@@H](NC(C)=O)CC2	–	–	–	–	–	IC50 (CCRF-CEM): 12 nM
CCC(=O)Oc1c(OC)c(OC)cc2c1-c1ccc(OC)c(=O)cc1[C@@H](NC(C)=O)CC2	–	–	–	–	–	IC50 (CCRF-CEM): 12 nM
COc1c(Cl)c2c(c(OC)c1OC)-c1ccc(SC)c(=O)cc1[C@@H](NC(=O)OCCOCCO)CC2	93	93	93	93	93	–
COc1cc2c(c(OC(=O)C(C)C)c1OC)-c1ccc(OC)c(=O)cc1[C@@H](NC(C)=O)CC2	–	–	–	–	–	IC50 (CCRF-CEM): 12 nM
COc1c(Cl)c2c(c(OC)c1OC)-c1ccc(SC)c(=O)cc1[C@@H](NC(=O)OCCO)CC2	40	40	40	40	40	–
COc1cc2c(c(OC)c1OC)-c1ccc(NCCOC(=O)CCC(=O)Oc3ccc(CO[N+](=O)[O-])cc3)c(=O)cc1[C@@H](NC(C)=O)CC2	–	–	–	–	–	IC50 (A2780): 20 nM; IC50 (Bel-7402): 17 nM; IC50 (MCF7 [6]): 17 nM; IC50 (A549 [7]): 17 nM
COc1cc2c(c(OC)c1OC)-c1ccc(NCCOC(=O)CCC(=O)Oc3cccc(CO[N+](=O)[O-])c3)c(=O)cc1[C@@H](NC(C)=O)CC2	–	–	–	–	–	IC50 (A2780): 20 nM; IC50 (Bel-7402): 17 nM; IC50 (MCF7 [6]): 17 nM; IC50 (A549 [7]): 17 nM
COc1c(Cl)c2c(c(OC)c1OC)-c1ccc(SC)c(=O)cc1[C@@H](NC(=O)CCCCl)CC2	10	10	10	10	10	IC50 [5]: 10 nM
COc1cc2c(c(OC)c1OC)-c1ccc(NC(C)C)c(=O)cc1[C@@H](NC(C)=O)CC2	–	–	–	–	–	IC50 (P388): 48 nM
CCCCCCCCCC(=O)N[C@H]1CCc2c(Cl)c(OC)c(OC)c(OC)c2-c2ccc(SC)c(=O)cc21	78	78	78	78	78	IC50 [5]: 78 nM
COc1c(Cl)c2c(c(OC)c1OC)-c1ccc(SC)c(=O)cc1[C@@H](NC(=O)OC(C)C)CC2	20	20	20	20	20	–
COc1cc2c(c(OC)c1OC)-c1ccc(NCCOC(=O)CCC(=O)OCCO[N+](=O)[O-])c(=O)cc1[C@@H](NC(C)=O)CC2	–	–	–	–	–	IC50 (A2780): 20 nM; IC50 (Bel-7402): 40 nM; IC50 (MCF7 [6]): 40 nM; IC50 (A549 [7]): 40 nM
COCC(=O)N[C@H]1CCc2c(Cl)c(OC)c(OC)c(OC)c2-c2ccc(SC)c(=O)cc21	5	5	5	5	5	IC50 [5]: 5 nM
COc1cc2c(c(OC)c1OC)-c1ccc(NN(C)C)c(=O)cc1[C@@H](NC(C)=O)CC2	–	–	–	–	–	IC50 (P388): 25 nM
CCNc1ccc2c(cc1=O)[C@@H](NC(C)=O)CCc1cc(OC)c(OC)c(OC)c1-2	–	–	–	–	–	IC50 (P388): 29 nM
COc1cc2c(c(OC)c1OC)-c1ccc(NCCOC(=O)CCC(=O)OCCCCO[N+](=O)[O-])c(=O)cc1[C@@H](NC(C)=O)CC2	–	–	–	–	–	IC50 (A2780): 20 nM; IC50 (Bel-7402): 40 nM; IC50 (MCF7 [6]): 40 nM; IC50 (A549 [7]): 40 nM
COc1cc2c(c(O)c1OC)-c1ccc(OC)c(=O)cc1[C@@H](NC(C)=O)CC2	–	–	–	–	–	IC50 (CCRF-CEM): 15 nM
CCCOc1c(OC)c(OC)cc2c1-c1ccc(OC)c(=O)cc1[C@@H](NC(C)=O)CC2	–	–	–	–	–	IC50 (CCRF-CEM): 12 nM
COc1c(Cl)c2c(c(OC)c1OC)-c1ccc(SC)c(=O)cc1[C@@H](N)CC2	98	98	98	98	98	–
CCN(CC)C(=O)N[C@H]1CCc2c(Cl)c(OC)c(OC)c(OC)c2-c2ccc(SC)c(=O)cc21	27	27	27	27	27	IC50 [5]: 27 nM
CCCOC(=O)N[C@H]1CCc2c(Cl)c(OC)c(OC)c(OC)c2-c2ccc(SC)c(=O)cc21	8	8	8	8	8	–
COc1c(Cl)c2c(c(OC)c1OC)-c1ccc(SC)c(=O)cc1[C@@H](NC(=O)OCC(F)(F)F)CC2	7	7	7	7	7	–
CNc1ccc2c(cc1=O)[C@@H](NC(C)=O)CCc1cc(OC)c(OC)c(OC)c1-2	–	–	–	–	–	IC50 (P388): 29 nM
